Columns and labels:
giant foxtail = test: Test A pre-/postemergence herbicide test; type: in vivo, Setaria faberii
How it was run: (§1)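 Greenhouse pot test with pre- and postemergence application of surfactant-containing solvent formulations. Postemergence plants were 2–10 cm, one- to two-leaf stage. Response scored visually after ~10 days, 0 (no effect) to 100 (complete control).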

barnyardgrass [1] = test: Test B flooded paddy test; type: in vivo, Echinochloa crus-galli; conditions: Flood, scale of 0 to 100 where 0 is no effect and 100 is complete control
How it was run: (§2)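 In-water application to pots flooded 3 cm deep, plants at 2-leaf stage. Held in greenhouse 13–15 days at constant flood depth. Scored 0–100 by eye against controls.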

wheat = test: Test A pre-/postemergence herbicide test; type: in vivo, Triticum aestivum
How it was run: as §1

corn = test: Test A pre-/postemergence herbicide test; type: in vivo, Zea mays
How it was run: as §1

sedge, umbrella = test: Test B flooded paddy test; type: in vivo, Cyperus difformis; conditions: Flood, scale of 0 to 100 where 0 is no effect and 100 is complete control
How it was run: as §2

rice = test: Test B flooded paddy test; type: in vivo, Oryza sativa; conditions: Flood, scale of 0 to 100 where 0 is no effect and 100 is complete control
How it was run: as §2

pigweed = test: Test A pre-/postemergence herbicide test; type: in vivo, Amaranthus retroflexus
How it was run: as §1

crabgrass, large = test: Test A pre-/postemergence herbicide test; type: in vivo, Digitaria sanguinalis
How it was run: as §1

velvetleaf = test: Test A pre-/postemergence herbicide test; type: in vivo, Abutilon theophrasti
How it was run: as §1

morningglory = test: Test A pre-/postemergence herbicide test; type: in vivo, Ipomoea spp.
How it was run: as §1

barnyardgrass [2] = test: Test A pre-/postemergence herbicide test; type: in vivo, Echinochloa crus-galli
How it was run: as §1

ducksalad = test: Test B flooded paddy test; type: in vivo, Heteranthera limosa; conditions: Flood, scale of 0 to 100 where 0 is no effect and 100 is complete control
How it was run: as §2

[3] = 125 g ai/ha, visual rating, 0 to 100 scale, 0 no effect, 100 complete control, approximately 10 days, preemergence
[4] = Postemergence, 125 g ai/ha, 0 to 100 scale, 0 is no effect, 100 is complete control
[5] = preemergence, 500 g ai/ha, 0 to 100 scale, 0 is no effect and 100 is complete control
[6] = Postemergence, 500 g ai/ha, 0 to 100 scale (0 no effect, 100 complete control)
[7] = Preemergence, 125 g ai/ha, 0 to 100 scale where 0 is no effect and 100 is complete control

| SMILES | Plant response rating, Foxtail, Giant (giant foxtail; [4]) | Plant response rating, Foxtail, Giant (giant foxtail; [5]) | Plant response rating, Barnyardgrass (barnyardgrass [1]; 250 g ai/ha) | Plant response rating, Barnyardgrass (barnyardgrass [1]; 1000 g ai/ha) | Plant response rating, Wheat (wheat; [4]) | Plant response rating, Wheat (wheat; [5]) | Plant response rating, Corn (corn; [4]) | Plant response rating, Corn (corn; [5]) | Plant response rating, Sedge, Umbrella (sedge, umbrella; 250 g ai/ha) | Plant response rating, Sedge, Umbrella (sedge, umbrella; 1000 g ai/ha) | Plant response rating, Pigweed (pigweed; [4]) | Plant response rating, Pigweed (pigweed; [5]) | Plant response rating, Crabgrass, Large (crabgrass, large; [4]) | Plant response rating, Crabgrass, Large (crabgrass, large; [5]) | Plant response rating, Velvetleaf (velvetleaf; [4]) | Plant response rating, Velvetleaf (velvetleaf; [5]) | Plant response rating, Morningglory (morningglory; [4]) | Plant response rating, Morningglory (morningglory; [5]) | Plant response rating, Barnyardgrass (barnyardgrass [2]; [4]) | Plant response rating, Barnyardgrass (barnyardgrass [2]; [5]) | also measured |
| --- | --- | --- | --- | --- | --- | --- | --- | --- | --- | --- | --- | --- | --- | --- | --- | --- | --- | --- | --- | --- | --- |
| COc1ccc(C2CNC(=O)C2C(=O)Nc2ccccc2C(F)(F)F)cc1F (racemic) [Compound 199] | 0 | 90 | 20 | 20 | 0 | 0 | 0 | 0 | 0 | 0 | 0 | 0 | 60 | 100 | 0 | 0 | 0 | 0 | 50 | 60 | Plant response rating, Foxtail, Giant (giant foxtail; [3]): 50; Foxtail, Giant plant response rating (0 to 100 scale, 0 is no effect, 100 is complete control) (giant foxtail; Postemergence, 500 g ai/ha): 50; Plant response rating, Wheat (wheat; [3]): 0; Wheat plant response rating (0 to 100 scale, 0 is no effect, 100 is complete control) (wheat; Postemergence, 500 g ai/ha): 0; Plant response rating, Corn (corn; [3]): 0; Corn plant response rating (0 to 100 scale, 0 is no effect, 100 is complete control) (corn; Postemergence, 500 g ai/ha): 0; Plant response rating, Rice (rice; 250 g ai/ha): 0; Plant response rating, Rice (rice; 1000 g ai/ha): 0; Plant response rating, Pigweed (pigweed; [3]): 0; Pigweed plant response rating (0 to 100 scale, 0 is no effect, 100 is complete control) (pigweed; Postemergence, 500 g ai/ha): 0; Plant response rating, Crabgrass, Large (crabgrass, large; [3]): 90; Crabgrass, Large plant response rating (0 to 100 scale, 0 is no effect, 100 is complete control) (crabgrass, large; Postemergence, 500 g ai/ha): 80; Plant response rating, Velvetleaf (velvetleaf; [3]): 0; Velvetleaf plant response rating (0 to 100 scale, 0 is no effect, 100 is complete control) (velvetleaf; Postemergence, 500 g ai/ha): 40; Plant response rating, Morningglory (morningglory; [3]): 0; Morningglory plant response rating (0 to 100 scale, 0 is no effect, 100 is complete control) (morningglory; Postemergence, 500 g ai/ha): 0; Plant response rating, Barnyardgrass (barnyardgrass [2]; [3]): 0; Barnyardgrass plant response rating (0 to 100 scale, 0 is no effect, 100 is complete control) (barnyardgrass [2]; Postemergence, 500 g ai/ha): 70; Plant response rating, Ducksalad (ducksalad; 250 g ai/ha): 90; Plant response rating, Ducksalad (ducksalad; 1000 g ai/ha): 80 |
| O=C1NCC(c2ccc(F)c(F)c2)C1C(=O)Nc1cccc(C(F)(F)F)n1 (racemic) [Compound 245] | 20 | 70 | – | 20 | 0 | 0 | 0 | 0 | – | 0 | 40 | 30 | 20 | 80 | 20 | 0 | 0 | 0 | 30 | 20 | Plant response rating, Foxtail, Giant (giant foxtail; [6]): 30; Plant response rating, Foxtail, Giant (giant foxtail; [7]): 60; Plant response rating, Wheat (wheat; [6]): 40; Plant response rating, Wheat (wheat; [7]): 0; Plant response rating, Corn (corn; [6]): 0; Plant response rating, Corn (corn; [7]): 0; Plant response rating, Rice (rice; 1000 g ai/ha): 0; Plant response rating, Pigweed (pigweed; [6]): 40; Plant response rating, Pigweed (pigweed; [7]): 0; Plant response rating, Crabgrass, Large (crabgrass, large; [6]): 30; Plant response rating, Crabgrass, Large (crabgrass, large; [7]): 60; Plant response rating, Velvetleaf (velvetleaf; [6]): 40; Plant response rating, Velvetleaf (velvetleaf; [7]): 0; Plant response rating, Morningglory (morningglory; [6]): 0; Plant response rating, Morningglory (morningglory; [7]): 0; Plant response rating, Barnyardgrass (barnyardgrass [2]; [6]): 50; Plant response rating, Barnyardgrass (barnyardgrass [2]; [7]): 20; Plant response rating, Ducksalad (ducksalad; 1000 g ai/ha): 90 |
| O=C1NCC(c2ccc(OC(F)(F)F)cc2)C1C(=O)Nc1ccccc1F (racemic) [Compound 256] | 40 | 60 | 0 | – | 0 | 0 | 0 | 0 | 50 | – | 0 | 0 | 70 | 90 | 0 | 0 | 0 | 0 | 0 | 20 | Plant response rating, Foxtail, Giant (giant foxtail; [6]): 70; Plant response rating, Foxtail, Giant (giant foxtail; [7]): 20; Plant response rating, Wheat (wheat; [6]): 20; Plant response rating, Wheat (wheat; [7]): 0; Plant response rating, Corn (corn; [6]): 0; Plant response rating, Corn (corn; [7]): 0; Plant response rating, Rice (rice; 250 g ai/ha): 0; Plant response rating, Pigweed (pigweed; [6]): 0; Plant response rating, Pigweed (pigweed; [7]): 0; Plant response rating, Crabgrass, Large (crabgrass, large; [6]): 90; Plant response rating, Crabgrass, Large (crabgrass, large; [7]): 80; Plant response rating, Velvetleaf (velvetleaf; [6]): 0; Plant response rating, Velvetleaf (velvetleaf; [7]): 0; Plant response rating, Morningglory (morningglory; [6]): 0; Plant response rating, Morningglory (morningglory; [7]): 0; Plant response rating, Barnyardgrass (barnyardgrass [2]; [6]): 20; Plant response rating, Barnyardgrass (barnyardgrass [2]; [7]): 0; Plant response rating, Ducksalad (ducksalad; 250 g ai/ha): 60 |
